The values below come from US20250026759A1 (Merck Sharp & Dohme LLC, priority 2023, published 2025).

The experiment has as its system PBMCs infected with VSV-G pseudotyped HIV virus (VSV-G/pNLG1-P2A-ΔEnv). As to the kind of experiment: cells. The format is cell-based, human. The settings on record: Homo sapiens, PBMC, read-out: TACK EC50.

The EC50 is the concentration at which the effect is half-maximal. In the case of `O=C1Nc2cc(Cn3cc4cnccc4n3)c(F)cc2[C@@](C#CC2CC2)(C(F)(F)F)N1` [Example 21, (S)-7-((2H-pyrazolo[4,3-c]pyridin-2-yl)methyl)-4-(cyclopropylethynyl)-6-fluoro-4-(trifluoromethyl)-3,4-dihydroquinazolin-2(1H)-one], the EC50 amounted to 13.4 nM.
With `CC(F)(F)[C@@]1(C#CC2CC2)NC(=O)Nc2cc(Cn3ccc(N)n3)c(F)cc21` [Example 43, (S)-7-((3-amino-1H-pyrazol-1-yl)methyl)-4-(cyclopropylethynyl)-4-(1,1-difluoroethyl)-6-fluoro-3,4-dihydroquinazolin-2(1H)-one], the EC50 was 8.5 nM.
For `COCc1ccn(Cc2cc3c(cc2F)[C@@](C#CC2CC2)(C(C)(F)F)NC(=O)N3)n1` [Example 54, (S)-4-(cyclopropylethynyl)-4-(1,1-difluoroethyl)-6-fluoro-7-((3-(methoxymethyl)-1H-pyrazol-1-yl)methyl)-3,4-dihydroquinazolin-2(1H)-one], the EC50 was determined as 33.5 nM.
For `CN(Cc1cc2c(cc1F)[C@@](C#CC1CC1)(C(C)(F)F)NC(=O)N2)c1cc[nH]n1` [Example 111, (S)-4-(cyclopropylethynyl)-4-(1,1-difluoroethyl)-6-fluoro-7-((methyl(1H-pyrazol-3-yl)amino)methyl)-3,4-dihydroquinazolin-2(1H)-one] the value was 103 nM; for `CC(F)(F)[C@@]1(C#CC2CC2)NC(=O)Nc2cc(Cn3ccnc3CO)c(F)cc21` [Example 49, (S)-4-(cyclopropylethynyl)-4-(1,1-difluoroethyl)-6-fluoro-7-((2-(hydroxymethyl)-1H-imidazol-1-yl)methyl)-3,4-dihydroquinazolin-2(1H)-one], 41.8 nM; for `CC(F)(F)[C@@]1(C#CC2CC2)NC(=O)Nc2cc(Cn3ccc(Br)n3)c(F)cc21` [Example 19, (S)-7-((3-bromo-1H-pyrazol-1-yl)methyl)-4-(cyclopropylethynyl)-4-(1,1-difluoroethyl)-6-fluoro-3,4-dihydroquinazolin-2(1H)-one], 26.2 nM.
For `Nc1ncn(Cc2cc3c(cc2F)[C@@](C#CC2CC2)(C(F)(F)F)NC(=O)N3)n1` (single isomer, unassigned) [Example 107] the value was 17.4 nM.
For `CC(F)(F)[C@@]1(C#CC2CC2)NC(=O)Nc2cc(Cn3ncc4ccccc43)c(F)cc21` [Example 91, (S)-7-((1H-indazol-1-yl)methyl)-4-(cyclopropylethynyl)-4-(1,1-difluoroethyl)-6-fluoro-3,4-dihydroquinazolin-2(1H)-one] the value was 27.3 nM.
Consider `O=C1Nc2cc(Cc3[nH]nc4ccccc34)c(F)cc2[C@@](C#CC2CC2)(C(F)(F)F)N1` [Example 119, (S)-7-((2H-indazol-3-yl)methyl)-4-(cyclopropylethynyl)-6-fluoro-4-(trifluoromethyl)-3,4-dihydroquinazolin-2(1H)-one], for which the EC50 is 57.8 nM.
For the compound `CC(F)(F)[C@@]1(C#CC2CC2)NC(=O)Nc2cc(Cn3ccc4c3C(=O)NC4)c(F)cc21` [Example 40, (S)-4-(cyclopropylethynyl)-4-(1,1-difluoroethyl)-6-fluoro-7-((6-oxo-5,6-dihydropyrrolo[3,4-b]pyrrol-1(4H)-yl)methyl)-3,4-dihydroquinazolin-2(1H)-one], the EC50 came out at 5.9 nM.
As for `CC(F)(F)[C@@]1(C#CC2CC2)NC(=O)Nc2cc(Cn3cc(Cl)c(CO)n3)c(F)cc21` [Example 71, (S)-7-((4-chloro-3-(hydroxymethyl)-1H-pyrazol-1-yl)methyl)-4-(cyclopropylethynyl)-4-(1,1-difluoroethyl)-6-fluoro-3,4-dihydroquinazolin-2(1H)-one], the EC50 was 30 nM.
For `O=C1Nc2cc(CNC(=O)c3nnc[nH]3)c(F)cc2[C@@](C#CC2CC2)(C(F)(F)F)N1` [Example 85, (S)-N-((4-(cyclopropylethynyl)-6-fluoro-2-oxo-4-(trifluoromethyl)-1,2,3,4-tetrahydroquinazolin-7-yl)methyl)-4H-1,2,4-triazole-3-carboxamide] the value was 280 nM.
Turning to `CC(F)(F)[C@@]1(C#CC2CC2)NC(=O)Nc2cc(Cn3ccc(-c4cc[nH]n4)n3)c(F)cc21` [Example 52, (S)-7-(1H,1′H-[3,3′-bipyrazol]-1-ylmethyl)-4-(cyclopropylethynyl)-4-(1,1-difluoroethyl)-6-fluoro-3,4-dihydroquinazolin-2(1H)-one], the EC50 is 28.3 nM.
Regarding `CC(F)(F)[C@@]1(C#CC2CC2)NC(=O)Nc2cc(Cn3cc(F)cn3)c(F)cc21` [Example 15, (S)-4-(cyclopropylethynyl)-4-(1,1-difluoroethyl)-6-fluoro-7-((4-fluoro-1H-pyrazol-1-yl)methyl)-3,4-dihydroquinazolin-2(1H)-one], the EC50 is 27.3 nM.
Consider `CN1C(=O)NC(=O)C1Cc1cc2c(cc1F)[C@@](C#CC1CC1)(C(C)(F)F)NC(=O)N2` (single isomer, unassigned) [Example 124, (S or R)-5-(((S)-4-(cyclopropylethynyl)-4-(1,1-difluoroethyl)-6-fluoro-2-oxo-1,2,3,4-tetrahydroquinazolin-7-yl)methyl)-1-methylimidazolidine-2,4-dione], for which the EC50 is 90.4 nM.
For `CC(F)(F)[C@@]1(C#CC2CC2)NC(=O)Nc2cc(Cn3c(=O)[nH]c4ccccc43)c(F)cc21` [Example 12, (S)-4-(cyclopropylethynyl)-4-(1,1-difluoroethyl)-6-fluoro-7-((2-oxo-2,3-dihydro-1H-benzo[d]imidazol-1-yl)methyl)-3,4-dihydroquinazolin-2(1H)-one] the value was 19.6 nM; for `O=C1Nc2cc(Cn3ncc4c3CCOC4)c(F)cc2[C@@](C#CC2CC2)(C(F)(F)F)N1` (single isomer, unassigned) [Example 22], 60.5 nM; for `O=C1Nc2cc(Cn3ccc(CO)n3)c(F)cc2[C@@](C#CC2CC2)(C(F)(F)F)N1` (single isomer, unassigned) [Example 6], 17.1 nM.
For `CC(F)(F)[C@@]1(C#CC2CC2)NC(=O)Nc2cc(Cn3cc(F)c(C(N)=O)n3)c(F)cc21` (single isomer, unassigned) [Example 104], the EC50 was 14.6 nM.
For `O=C1Nc2cc(Cn3c(=O)[nH]c4ccccc43)c(F)cc2[C@@](C#CC2CC2)(C(F)(F)F)N1` [Example 24, (S)-4-(cyclopropylethynyl)-6-fluoro-7-((2-oxo-2,3-dihydro-1H-benzo[d]imidazol-1-yl)methyl)-4-(trifluoromethyl)-3,4-dihydroquinazolin-2(1H)-one] the value was 32.5 nM; for `COCc1cc(Cl)n(Cc2cc3c(cc2F)[C@@](C#CC2CC2)(C(C)(F)F)NC(=O)N3)n1` [Example 18, (S)-7-((5-chloro-3-(methoxymethyl)-1H-pyrazol-1-yl)methyl)-4-(cyclopropylethynyl)-4-(1,1-difluoroethyl)-6-fluoro-3,4-dihydroquinazolin-2(1H)-one], 46.6 nM.
`O=C1Nc2cc(Cn3c(=O)[nH]c4cccnc43)c(F)cc2[C@@](C#CC2CC2)(C(F)(F)F)N1` (single isomer, unassigned) [Example 7]: the EC50 worked out at 12 nM.
For `CC(F)(F)[C@@]1(C#CC2CC2)NC(=O)Nc2cc(Cn3ccc(S(N)(=O)=O)n3)c(F)cc21` [Example 120, (S)-1-((4-(cyclopropylethynyl)-4-(1,1-difluoroethyl)-6-fluoro-2-oxo-1,2,3,4-tetrahydroquinazolin-7-yl)methyl)-1H-pyrazole-3-sulfonamide] the value was 61.7 nM; for `Cc1nc(N)sc1C(=O)NCc1cc2c(cc1F)[C@@](C#CC1CC1)(C(F)(F)F)NC(=O)N2` [Example 84, (S)-2-amino-N-((4-(cyclopropylethynyl)-6-fluoro-2-oxo-4-(trifluoromethyl)-1,2,3,4-tetrahydroquinazolin-7-yl)methyl)-4-methylthiazole-5-carboxamide], 273 nM.
For `NC(=O)c1ncn(Cc2cc3c(cc2F)[C@@](C#CC2CC2)(C(F)(F)F)NC(=O)N3)n1` (single isomer, unassigned) [Example 117] the value was 31.6 nM.
For `COc1ncn(Cc2cc3c(cc2F)[C@@](C#CC2CC2)(C(C)(F)F)NC(=O)N3)n1` [Example 1, (S)-4-(cyclopropylethynyl)-4-(1,1-difluoroethyl)-6-fluoro-7-((3-methoxy-1H-1,2,4-triazol-1-yl)methyl)-3,4-dihydroquinazolin-2(1H)-one] the value was 14.6 nM; for `O=C1Nc2cc(Cn3c(=O)[nH]c4ncccc43)c(F)cc2[C@@](C#CC2CC2)(C(F)(F)F)N1` (single isomer, unassigned) [Example 8], 38.7 nM.
Consider `CC(F)(F)[C@@]1(C#CC2CC2)NC(=O)Nc2cc(Cn3cnc(CO)n3)c(F)cc21` [Example 4, (S)-4-(cyclopropylethynyl)-4-(1,1-difluoroethyl)-6-fluoro-7-((3-(hydroxymethyl)-1H-1,2,4-triazol-1-yl)methyl)-3,4-dihydroquinazolin-2(1H)-one], for which the EC50 was 67.7 nM.
`Cc1n[nH]c(=O)n1Cc1cc2c(cc1F)[C@@](C#CC1CC1)(C(F)(F)F)NC(=O)N2` [Example 33, (S)-4-(cyclopropylethynyl)-6-fluoro-7-((3-methyl-5-oxo-1,5-dihydro-4H-1,2,4-triazol-4-yl)methyl)-4-(trifluoromethyl)-3,4-dihydroquinazolin-2(1H)-one]: the EC50 was 23.6 nM.
With `COc1nn(Cc2cc3c(cc2F)[C@@](C#CC2CC2)(C(C)(F)F)NC(=O)N3)cc1F` [Example 115, (S)-4-(cyclopropylethynyl)-4-(1,1-difluoroethyl)-6-fluoro-7-((4-fluoro-3-methoxy-1H-pyrazol-1-yl)methyl)-3,4-dihydroquinazolin-2(1H)-one], the EC50 was 19.8 nM.
Regarding `O=C1Nc2cc(Cn3nccc3CO)c(F)cc2[C@@](C#CC2CC2)(C(F)(F)F)N1` (single isomer, unassigned) [Example 5], the EC50 came out at 109 nM.
Consider `O=C1Nc2cc(Cn3cnc(CO)n3)c(F)cc2[C@@](C#CC2CC2)(C(F)(F)F)N1` [Example 31, (S)-4-(cyclopropylethynyl)-6-fluoro-7-((3-(hydroxymethyl)-1H-1,2,4-triazol-1-yl)methyl)-4-(trifluoromethyl)-3,4-dihydroquinazolin-2(1H)-one], for which the EC50 is 52.8 nM.
